These results are taken from EP3130339A1, “A COMPOUND FOR USE IN THE TREATMENT OF COMORBID ANXIETY DISORDER AND DEPRESSION DISORDER” (Aché Laboratórios Farmacêuticos S.A., priority 2015, dated 2017).

Assay type in all cases: in vivo
The subject of data set [1] is Mice. Briefly: Non-precipitated withdrawal test. The settings on record: mouse, in vivo, po. An excerpt: This test aims at assessing how the sudden cessation of the administration of a medicine can be associated with the occurrence of withdrawal identifiable symptoms. The types of symptoms examined are feed changes, weight gain, body temperature and the occurrence of one or behavioral symptoms and others, such as tremor, teeth chattering, wet dog body-shaking, diarrhea or piloerection. The triggering of these signs is a first sign that the substance induces dependence after repeated administration.
The method employed followed the procedure described by Goudie and Leathley (Psychopharmacology 1991, 103: 529-537).
Two mice per cage received two administrations per day (approximately 10:00 hours and 16:00 hours) of the test substance continuously during 19 days (day 1 to day 19), with the last administration occurring next to 10:00 hours of the 20th day. Control animals received the same number of administrations of vehicle. […] During the discontinuation phase, all animals received administration of vehicle once a day.
Additionally to the observations made after discontinuing the medicines, the same measures were taken at day 1 and day 10 of treatment, in addition to the 3 last days (days 18 to 20) immediately prior to administration of the dose in the morning to assess the effects of medicines before discontinuation. After discontinuation, the first observation was performed 24 hours after the last administration and, from then on, every 24 hours (days 21 to 28).
For daily measurements, the animals were evaluated with respect to behavioral changes during 5 minutes (two animals simultaneously observed). Then, their body weights and rectal temperatures were measured. Then, they received the proper treatment and were returned to their cages.
The leftover food in their supporters was weighed immediately after all animals return to their cages (only in the mornings), and food consumption in the previous 24 hours was determined.
The body weights, feed consumption and rectal temperatures were also measured 24 hours before the first administration, as reference values. The treated groups were homogenized with regard to body weights on the day preceding the first administration of the tested substances.
Compound (A) (3-(2-(-4-(2-methoxyphenyl)piperazin-1-yl)ethyl)quinazolin-4 (3H)-one) was evaluated in 3 doses (3, 10 and 30 mg/kg) administered orally (p.o.) and compared to the vehicle (control group).
Chlordiazepoxide (64 mg/kg, p.o.) was administered under the same experimental conditions, and was employed as reference substance in the test.
Paroxetine (15 and 30 mg/kg p.o.) was administered under the same experimental conditions and was used as comparative substance.
The test was blinded. Data were analyzed by comparing substances with their control vehicles employing one-way ANOVA with the group as a factor followed by post-hoc Dunnett tests. Data with the reference substance were analyzed using unpaired Student's t test.

The test system of data set [2] is Mice. The data set can be described thus: Sphere hiding test. The following applies: for Number of Hidden Spheres (mean ± mean standard error): 25 glass spheres, counted at the end of 30 minutes. The method, then: This test is based on the natural aversive behavior to glass and marble of rodents, where the presence of these objects triggers the action of burying (hiding). In this test, there are potential behavioral changes of medicines that may promote an ansiogenic or anxiolytic profile. This is determined by the increase or decrease of the behavior of hiding glass spheres ("marbles") that are randomly distributed on the surface of a box lined with sawdust. The increase of the number of covered balls is an indicative of anxiety, since it is supposed to represent a foreign agent to the animal, whose presence may pose threat. The administration of anxiolytics medicines decreases the number of spheres buried in non-sedative doses.
The method employed followed the procedure described by Broekkamp et al. (Eur. J. Pharmacol., 1986, 126, 223-229).
Mice were individually placed in transparent plastic cages (33 x 21 x 18 cm), with the floor covered by a 5 cm layer of sawdust and 25 glass spheres grouped in the center of the cage. The cage was covered with a perforated plastic cover. Each test cage, along with the glass spheres, were previously impregnated with "mouse odor", and a group of 10 mice was left inside for 15 minutes.
The number of glass spheres covered with sawdust (2/3 or more of the surface) was counted at the end of the 30 minutes of the test.
Each study group consisted of 12 mice. The test was partially blind (substances tested versus vehicle of the tested substances).
This test aimed at obtaining a comparison profile of response of Compound (A) (3-(2-(-4-(2-methoxyphenyl)piperazin-1-yl) ethyl) quinazolin-4 (3H) -one and Compound (B) (3-(2-(4-(2-cyanophenyl)piperazin-1-yl)ethyl)quinazolin-4(3H)-one) with known compounds that act by different mechanisms. The comparative compounds used were alprazolam (benzodiazepine) and paroxetine (ISRS-type antidepressant). These compounds were tested in the following doses: Table 3: Compounds tested, concentrations employed and route of administration.
Fluoxetine (ISRI antidepressant) was used as the positive control substance in the test, and was administered at 32 mg/kg (i.p.).
Quantitative data for the tested substances (number of glass spheres coated with sawdust) were evaluated by comparison with the treated groups using one-way ANOVA followed by planned comparisons against the appropriate vehicles. Data with fluoxetine were compared to the vehicle control using unpaired Student's t test.

The next data set deals with mice (RJ:NMRI, males). Briefly: Bright/dark box test (clear/dark transition test). The settings on record: for Time spent in the clear compartment compared to vehicle % / Time spent in the clear compartment (seconds) (mean ± mean standard error): 30 minutes before the test; for Time spent in the clear compartment (seconds) (mean ± mean standard error): three-minute test. The protocol: This model, also known as clear/dark transition test, is characterized as a model of conflict, based on the natural tendency to explore new environments versus avoidance of doing so, due to the potential possibility of the presence of aversive stimuli. It is an animal model based on independent behavior of conditioning, therefore, there is no need of learning. In rodents, this model is grounded in their natural aversion to excessively clear environments. This aversion is measured from the ansiogenic component expressed by lower exposure of the animal to the clear compartment.
The method employed followed the procedure described by Crawley and Goodwin (Pharmacol. Biochem. Behav. 1981, 15, 695-699).
The animals were placed on the clear field of a box comprising two compartments, one being illuminate and open (25 x 27 x 27 cm) and the other being dark and close (20 x 27 x 27 cm). Data on the length of stay in each compartment were collected over the three-minute test.
This test aimed at obtaining a comparison profile of response of Compound (A) (3-(2-(-4-(2-methoxyphenyl)piperazin-1-yl)ethyl)quinazolin-4(3H)-one and Compound (B) 3-(2-(4-(2-cyanophenyl)piperazin-1-yl)ethyl)quinazolin-4(3H)-one with known compounds that act by different mechanisms. The comparative compounds were alprazolam (benzodiazepine), paroxetine (ISRS-type antidepressant), venlafaxine (IRSN-type antidepressant) and agomelatine (antidepressant that acts on melatonin and serotonin 5-HT2C receptor). The following doses were employed in this study: Table 1: Tested compounds, concentrations and route of administration.
In this blind study, ten mice (RJ:NMRI, males) were employed per group. Clobazam (12 mg/Kg, i.p. route) was administered under the same study conditions as the reference compound. All compounds were administered 30 minutes before the test.
The test data of the response of substances were analyzed comparing the groups treated with the control vehicle using one-way ANOVA followed by post-hoc analysis of Dunnett's test. The data of the reference substance obtained were analyzed using unpaired Student's t test.

Where [3] appears, read: dose given in Table 4 as (4), i.p.
The mark [4] stands for this setting: dose given in Table 4 as (8), i.p.

As for `COc1ccccc1N1CCN(CCn2cnc3ccccc3c2=O)CC1` [Compound (A), 3-(2-(-4-(2-methoxyphenyl)piperazin-1-yl)ethyl)quinazolin-4(3H)-one], in the data set with Mice [1], the “withdrawal syndrome after an extended administration regimen” value was “does not induce withdrawal syndrome”. In addition, the “Number of Hidden Spheres Compared to vehicle control %” value in the data set on Mice [2] (setting [3]) was -82%; in the data set with Mice [2] (setting [4]), -98%. For the same compound, the results for the “Number of Hidden Spheres (mean ± mean standard error)” value in the data set on Mice [2] (setting [3]) and with Mice [2] (setting [4]) were 3.5 ± 2.4 and 0.3 ± 0.3, respectively. In addition, in the data set on Mice [2] (summary of Table 4 over the doses tested, i.p.), the “number of hidden spheres (result in words)” value is “significantly reduced the number of hidden spheres”. For the same compound, the “Time spent in the clear compartment compared to vehicle %” value (shortened to “Time spent … to vehicle %”) is recorded as “+8%” in the data set on mice (RJ:NMRI, males) (4 mg/Kg i.p.); “+111%” in the data set with mice (RJ:NMRI, males) (8 mg/Kg i.p.); “+93%” in the data set with mice (RJ:NMRI, males) (16 mg/Kg i.p.). In addition, the “Time spent in the clear compartment (seconds) (mean ± mean standard error)” value (from here on “Time spent … (mean ± mean standard error)”) in the data set with mice (RJ:NMRI, males) (4 mg/Kg i.p.) stood at 79.6 ± 15.4 s; with mice (RJ:NMRI, males) (8 mg/Kg i.p.), 155.1 ± 14.4 s; in the data set on mice (RJ:NMRI, males) (16 mg/Kg i.p.), 141.7 ± 13.4 s. The “permanence time in the clear compartment (result in words)” value in the data set on mice (RJ:NMRI, males) (summary of Table 2 over the doses tested, i.p.) is on record as “efficient in extending the permanence time in the clear compartment”.

For the compound `Fc1ccc([C@@H]2CCNC[C@H]2COc2ccc3c(c2)OCO3)cc1` [Paroxetine, paroxetine], in the data set with Mice [1], the “withdrawal syndrome after an extended administration regimen” value was “induces mild withdrawal syndrome”. In the data set on Mice [1] (30 mg/kg), the “amount of food consumed” value is recorded as “significant increase in the amount of food consumed”; the “body weight and food consumption” value was “significantly induced weight loss and reduction of food consumption”. In the data set on Mice [2] (1.0 mg/kg i.p.), the “Number of Hidden Spheres Compared to vehicle control %” value is -56% and the “Number of Hidden Spheres (mean ± mean standard error)” value is reported as 8,4 ± 2,3. In the data set with mice (RJ:NMRI, males) (4 mg/Kg i.p.), the “Time spent … to vehicle %” value is given as “+15%” and the “Time spent … (mean ± mean standard error)” value was 84.6 ± 7.4 s. For the same compound, in the data set with mice (RJ:NMRI, males) (8 mg/Kg i.p.), the “Time spent … to vehicle %” value is -6% and the “Time spent … (mean ± mean standard error)” value worked out at 69.3 ± 5.9 s. Also, in the data set with mice (RJ:NMRI, males) (16 mg/Kg i.p.), the “Time spent … to vehicle %” value is reported as -13% and the “Time spent … (mean ± mean standard error)” value was determined as 63.8 ± 8.2 s.
